Legend:
[1] = tested on: SUM149 inflammatory breast tumor cells; assay: Anchorage-independent growth in soft agar, SUM149; type: cell-based; details: 28 days
Method: Assay for anchorage-independent growth in soft agar Cells (5×10^5) were suspended in 1× DMEM/HEPES, 10% heat-inactivated FBS, 0.13% bicarbonate, and 0.33% BBL agar. The cells were plated on 1% base agar plates (60 mm) containing 1× DMEM/HEPES, 10% heat-inactivated FBS, and 1% BBL agar. Fresh serum-containing medium was fed to the cells on 3-day intervals. The dishes were then incubated at 37° C. with 5% CO2 for 28 days. The colonies that grew in soft agar were photographed and counted. Data are expressed as the number of colonies formed per plate±S.E.M. and three plates were counted per cell line.

Akt = assay: pAkt levels in BT20 cells; type: cell-based; details: 5 μM; BT20, constitutively activated Akt
IL-6 = assay: Inhibition of IL-6 expression in lung tumor cells (ELISA); type: cell-based, human; details: 5 μM; HCC-827
Method: Inhibition of IL-6 expression in lung tumor cells. HCC-827 cells were seeded in 6-well plates at a density of 4×10^5 cells/well. The following day, the media was replaced with fresh media containing low serum and treated the compound from Example 1 at a concentration of 5 μM. The cells were incubated at 37° C. and the supernatant was collected at 2, 4, 24, 48, and 72 hours post treatment. The supernatant was centrifuged at 2000 rpm for 3 minutes, transferred to fresh tubes and stored at −20 for further analysis. The supernatants were diluted six times with distilled water. The supernatants were then subjected to ELISA analysis for expression of Interleukin-6 (IL-6) as per the manufacturer's protocol (Hs Human IL-6 kit, R&D Systems, Minneapolis, Minn. USA, Cat #HS600B). The amount of secreted IL-6 was calculated and quantified based on the standards and plotted as bar graphs using Microsoft excel. […] Stat3 expresses IL-6 and IL-6 stimulates Stat3 activation, resulting in angiogenesis, cell cycling and cell survival.

VEGF = assay: Inhibition of VEGF expression in lung tumor cells (ELISA); type: cell-based, human; details: single dose of 5 μM; HCC-827
Method: Inhibition of VEGF expression in lung tumor cells. HCC-827 were seeded in 6-well plates at a density of 4×10^5 cells. The following day, the media was replaced with fresh media containing low serum and treated either the compound from example 16 at a concentration of 5 μM. The cells were incubated at 37° C. and the supernatant was collected at 2, 4, 24, 48 and 72 hours post treatment. The supernatant was centrifuged at 2000 rpm for 3 minutes, transferred to fresh tubes and stored at −20 for further analysis. The supernatants were diluted six times with distilled water.

SMILES | colony formation in soft agar [1] | pAkt levels (Akt) | time for which IL-6 expression is inhibited (IL-6) [h] | time up to which expression and excretion of VEGF is inhibited (VEGF)
C/C(=C\C(=O)N[C@H]1CCc2cccc3c2N(C1=O)[C@H](C(=O)N[C@H](C)CCC(N)=O)C3)c1ccc(C(F)(F)P(=O)(OCOC(=O)C(C)(C)C)OCOC(=O)C(C)(C)C)cc1 [Example 1, (2E)-3-[4-[[bis[(2,2-dimethyl-1-oxopropoxy)methoxy]phosphinyl]difluoromethyl]phenyl]-but-2-enoyl-Haic-(R)-4-aminopentamide] | inhibition of colony formation | no effect | 48 | 
CCCC[C@H](NC(=O)/C=C(\C)c1ccc(C(F)(F)P(=O)(OCOC(=O)C(C)(C)C)OCOC(=O)C(C)(C)C)cc1)C(=O)N1C[C@H]2CC2[C@H]1C(=O)N[C@@H](CCC(N)=O)[C@@H](C)OCc1ccccc1 (stereo partly drawn) [Example 16, (2E)-3-[4-[[bis[(2,2-dimethyl-1-oxopropoxy)methoxy]phosphinyl]difluoromethyl]phenyl]-but-2-enoyl-norleucinyl-(2S,3R,4S)-methanoprolinyl-(4S,5R)-4-amino-5-benzyloxyhexamide] |  |  |  | up to 24 hr
